# Measurements as given in patent US20230348442A1, “GALECTIN-3 INHIBITING 2-HYDROXYCYCLOALKANE-1-CARBAMOYL DERIVATIVES” (Idorsia Pharmaceuticals Ltd, priority 2020, published 2023).
# pIC50: −log10 of the molar value.
# Target: human Gal-3 (hGal-3) (Homo sapiens (Human), UniProt P17931)
# Assay: competitive binding assay: binding of biotinylated hGal-3 to microplate-adsorbed asialofetuin (ASF), spectrophotometric
# Details: Activity on hGal-3; mean values of several measurements
# Procedure, shortened: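 Biotin-hGal-3/hGal-1 300-1000 ng/mL + cpd (DMSO dilutions) on ASF-coated plate, 3 h 4° C; wash; SA-HRP 80 ng/mL 1 h 4° C; wash; ABTS. IC50 = mean of several runs. hGal-1 preferably Cys→Ser (all six) mutant.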
# Sequence of human Gal-3 (hGal-3) (P17931 whole entry): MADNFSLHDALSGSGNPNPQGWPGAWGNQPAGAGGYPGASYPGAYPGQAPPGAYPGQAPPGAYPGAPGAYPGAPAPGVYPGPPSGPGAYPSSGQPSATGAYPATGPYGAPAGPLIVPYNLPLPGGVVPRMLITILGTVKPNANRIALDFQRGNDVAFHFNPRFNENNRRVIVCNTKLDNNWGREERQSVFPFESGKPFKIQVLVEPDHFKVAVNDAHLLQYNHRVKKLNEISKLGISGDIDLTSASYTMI
row,pIC50,SMILES
1,6.40,"CO[C@@H]1[C@@H](n2cc(-c3ccc(Cl)c(Cl)c3)nn2)[C@@H](O)[C@@H](CO)O[C@H]1C(=O)N(c1cc(Cl)cc(C#N)c1)[C@@H]1CC[C@H]1O [Example 2.8.4R, (2R,3R,4S,5R,6R)-N-(3-chloro-5-cyanophenyl)-4-(4-(3,4-dichlorophenyl)-1H-1,2,3-triazol-1-yl)-5-hydroxy-N-((1R,2R)-2-hydroxycyclobutyl)-6-(hydroxymethyl)-3-methoxytetrahydro-2H-pyran-2-carboxamide]"
2,6.81,"CO[C@@H]1[C@@H](n2cc(-c3ccc(Cl)c(Cl)c3)nn2)[C@@H](O)[C@@H](CO)O[C@H]1C(=O)N(c1cc(Br)cc(C#N)c1)[C@H]1CC[C@@H]1O [Example 2.8.5, (2R,3R,4S,5R,6R)-N-(3-bromo-5-cyanophenyl)-4-(4-(3,4-dichlorophenyl)-1H-1,2,3-triazol-1-yl)-5-hydroxy-N-((1S,2S)-2-hydroxycyclobutyl)-6-(hydroxymethyl)-3-methoxytetrahydro-2H-pyran-2-carboxamide]"
3,6.35,"CO[C@@H]1[C@@H](n2cc(-c3ccc(Cl)c(Cl)c3)nn2)[C@@H](O)[C@@H](CO)O[C@H]1C(=O)N(c1cc(Br)cc(C#N)c1)[C@@H]1CC[C@H]1O [Example 2.8.5R, (2R,3R,4S,5R,6R)-N-(3-bromo-5-cyanophenyl)-4-(4-(3,4-dichlorophenyl)-1H-1,2,3-triazol-1-yl)-5-hydroxy-N-((1R,2R)-2-hydroxycyclobutyl)-6-(hydroxymethyl)-3-methoxytetrahydro-2H-pyran-2-carboxamide]"
4,6.91,"CO[C@@H]1[C@@H](n2cc(-c3cc(F)cc(Cl)c3)nn2)[C@@H](O)[C@@H](CO)O[C@H]1C(=O)N(c1cc(Br)cc(C#N)c1)[C@H]1CC[C@@H]1O [Example 2.9.5, (2R,3R,4S,5R,6R)-N-(3-bromo-5-cyanophenyl)-4-(4-(3-chloro-5-fluorophenyl)-1H-1,2,3-triazol-1-yl)-5-hydroxy-N-((1S,2S)-2-hydroxycyclobutyl)-6-(hydroxymethyl)-3-methoxytetrahydro-2H-pyran-2-carboxamide]"
5,6.33,"CO[C@@H]1[C@@H](n2cc(-c3cc(F)cc(Cl)c3)nn2)[C@@H](O)[C@@H](CO)O[C@H]1C(=O)N(c1cc(Br)cc(C#N)c1)[C@@H]1CC[C@H]1O [Example 2.9.5R, (2R,3R,4S,5R,6R)-N-(3-bromo-5-cyanophenyl)-4-(4-(3-chloro-5-fluorophenyl)-1H-1,2,3-triazol-1-yl)-5-hydroxy-N-((1R,2R)-2-hydroxycyclobutyl)-6-(hydroxymethyl)-3-methoxytetrahydro-2H-pyran-2-carboxamide]"
6,6.63,"CO[C@@H]1[C@@H](n2cc(-c3cc(F)cc(Br)c3)nn2)[C@@H](O)[C@@H](CO)O[C@H]1C(=O)N(c1cc(C)cc(C#N)c1)[C@H]1CC[C@@H]1O [Example 2.10.8, (2R,3R,4S,5R,6R)-4-(4-(3-bromo-5-fluorophenyl)-1H-1,2,3-triazol-1-yl)-N-(3-cyano-5-methylphenyl)-5-hydroxy-N-((1S,2S)-2-hydroxycyclobutyl)-6-(hydroxymethyl)-3-methoxytetrahydro-2H-pyran-2-carboxamide]"
7,5.92,"CO[C@@H]1[C@@H](n2cc(-c3cc(F)cc(Br)c3)nn2)[C@@H](O)[C@@H](CO)O[C@H]1C(=O)N(c1cc(C)cc(C#N)c1)[C@@H]1CC[C@H]1O [Example 2.10.8R, (2R,3R,4S,5R,6R)-4-(4-(3-bromo-5-fluorophenyl)-1H-1,2,3-triazol-1-yl)-N-(3-cyano-5-methylphenyl)-5-hydroxy-N-((1R,2R)-2-hydroxycyclobutyl)-6-(hydroxymethyl)-3-methoxytetrahydro-2H-pyran-2-carboxamide]"
8,6.65,"COc1cc(C#N)cc(N(C(=O)[C@@H]2O[C@H](CO)[C@H](O)[C@H](n3cc(-c4cc(F)cc(Br)c4)nn3)[C@H]2OC)[C@H]2CC[C@@H]2O)c1 [Example 2.10.9, (2R,3R,4S,5R,6R)-4-(4-(3-bromo-5-fluorophenyl)-1H-1,2,3-triazol-1-yl)-N-(3-cyano-5-methoxyphenyl)-5-hydroxy-N-((1S,2S)-2-hydroxycyclobutyl)-6-(hydroxymethyl)-3-methoxytetrahydro-2H-pyran-2-carboxamide]"
9,6.01,"COc1cc(C#N)cc(N(C(=O)[C@@H]2O[C@H](CO)[C@H](O)[C@H](n3cc(-c4cc(F)cc(Br)c4)nn3)[C@H]2OC)[C@@H]2CC[C@H]2O)c1 [Example 2.10.9R, (2R,3R,4S,5R,6R)-4-(4-(3-bromo-5-fluorophenyl)-1H-1,2,3-triazol-1-yl)-N-(3-cyano-5-methoxyphenyl)-5-hydroxy-N-((1R,2R)-2-hydroxycyclobutyl)-6-(hydroxymethyl)-3-methoxytetrahydro-2H-pyran-2-carboxamide]"
10,7.37,"CO[C@@H]1[C@@H](n2cc(-c3ccc(C)c(F)c3F)nn2)[C@@H](O)[C@@H](CO)O[C@H]1C(=O)N(c1cc(Cl)cc(Cl)c1)[C@H]1CC[C@@H]1O [Example 2.11.2, (2R,3R,4S,5R,6R)-N-(3,5-dichlorophenyl)-4-(4-(2,3-difluoro-4-methylphenyl)-1H-1,2,3-triazol-1-yl)-5-hydroxy-N-((1S,2S)-2-hydroxycyclobutyl)-6-(hydroxymethyl)-3-methoxytetrahydro-2H-pyran-2-carboxamide]"
11,7.13,"CO[C@@H]1[C@@H](n2cc(-c3ccc(C)c(F)c3F)nn2)[C@@H](O)[C@@H](CO)O[C@H]1C(=O)N(c1cc(Cl)cc(Cl)c1)[C@@H]1CC[C@H]1O [Example 2.11.2R, (2R,3R,4S,5R,6R)-N-(3,5-dichlorophenyl)-4-(4-(2,3-difluoro-4-methylphenyl)-1H-1,2,3-triazol-1-yl)-5-hydroxy-N-((1R,2R)-2-hydroxycyclobutyl)-6-(hydroxymethyl)-3-methoxytetrahydro-2H-pyran-2-carboxamide]"
12,7.77,"CO[C@@H]1[C@@H](n2cc(-c3ccc(C)c(F)c3F)nn2)[C@@H](O)[C@@H](CO)O[C@H]1C(=O)N(c1cc(Br)cc(C#N)c1)[C@H]1CC[C@@H]1O [Example 2.11.5, (2R,3R,4S,5R,6R)-N-(3-bromo-5-cyanophenyl)-4-(4-(2,3-difluoro-4-methylphenyl)-1H-1,2,3-triazol-1-yl)-5-hydroxy-N-((1S,2S)-2-hydroxycyclobutyl)-6-(hydroxymethyl)-3-methoxytetrahydro-2H-pyran-2-carboxamide]"
13,7.01,"CO[C@@H]1[C@@H](n2cc(-c3ccc(C)c(F)c3F)nn2)[C@@H](O)[C@@H](CO)O[C@H]1C(=O)N(c1cc(Br)cc(C#N)c1)[C@@H]1CC[C@H]1O [Example 2.11.5R, (2R,3R,4S,5R,6R)-N-(3-bromo-5-cyanophenyl)-4-(4-(2,3-difluoro-4-methylphenyl)-1H-1,2,3-triazol-1-yl)-5-hydroxy-N-((1R,2R)-2-hydroxycyclobutyl)-6-(hydroxymethyl)-3-methoxytetrahydro-2H-pyran-2-carboxamide]"
14,6.74,"CO[C@@H]1[C@@H](n2cc(-c3ccc(Br)c(F)c3F)nn2)[C@@H](O)[C@@H](CO)O[C@H]1C(=O)N(c1cc(Cl)cc(Cl)c1)[C@H]1CC[C@@H]1O [Example 2.12.2, (2R,3R,4S,5R,6R)-4-(4-(4-bromo-2,3-difluorophenyl)-1H-1,2,3-triazol-1-yl)-N-(3,5-dichlorophenyl)-5-hydroxy-N-((1S,2S)-2-hydroxycyclobutyl)-6-(hydroxymethyl)-3-methoxytetrahydro-2H-pyran-2-carboxamide]"
15,7.00,"CO[C@@H]1[C@@H](n2cc(-c3ccc(Br)c(F)c3F)nn2)[C@@H](O)[C@@H](CO)O[C@H]1C(=O)N(c1cc(Cl)cc(Cl)c1)[C@@H]1CC[C@H]1O [Example 2.12.2R, (2R,3R,4S,5R,6R)-4-(4-(4-bromo-2,3-difluorophenyl)-1H-1,2,3-triazol-1-yl)-N-(3,5-dichlorophenyl)-5-hydroxy-N-((1R,2R)-2-hydroxycyclobutyl)-6-(hydroxymethyl)-3-methoxytetrahydro-2H-pyran-2-carboxamide]"
16,7.35,"CO[C@@H]1[C@@H](n2cc(-c3ccc(Br)c(F)c3F)nn2)[C@@H](O)[C@@H](CO)O[C@H]1C(=O)N(c1cc(Cl)cc(C#N)c1)[C@H]1CC[C@@H]1O [Example 2.12.4, (2R,3R,4S,5R,6R)-4-(4-(4-bromo-2,3-difluorophenyl)-1H-1,2,3-triazol-1-yl)-N-(3-chloro-5-cyanophenyl)-5-hydroxy-N-((1S,2S)-2-hydroxycyclobutyl)-6-(hydroxymethyl)-3-methoxytetrahydro-2H-pyran-2-carboxamide]"
17,6.87,"CO[C@@H]1[C@@H](n2cc(-c3ccc(Br)c(F)c3F)nn2)[C@@H](O)[C@@H](CO)O[C@H]1C(=O)N(c1cc(Cl)cc(C#N)c1)[C@@H]1CC[C@H]1O [Example 2.12.4R, (2R,3R,4S,5R,6R)-4-(4-(4-bromo-2,3-difluorophenyl)-1H-1,2,3-triazol-1-yl)-N-(3-chloro-5-cyanophenyl)-5-hydroxy-N-((1R,2R)-2-hydroxycyclobutyl)-6-(hydroxymethyl)-3-methoxytetrahydro-2H-pyran-2-carboxamide]"
18,7.59,"CO[C@@H]1[C@@H](n2cc(-c3ccc(Br)c(F)c3F)nn2)[C@@H](O)[C@@H](CO)O[C@H]1C(=O)N(c1cc(Br)cc(C#N)c1)[C@H]1CC[C@@H]1O [Example 2.12.5, (2R,3R,4S,5R,6R)-4-(4-(4-bromo-2,3-difluorophenyl)-1H-1,2,3-triazol-1-yl)-N-(3-bromo-5-cyanophenyl)-5-hydroxy-N-((1S,2S)-2-hydroxycyclobutyl)-6-(hydroxymethyl)-3-methoxytetrahydro-2H-pyran-2-carboxamide]"
19,7.11,"CO[C@@H]1[C@@H](n2cc(-c3ccc(Br)c(F)c3F)nn2)[C@@H](O)[C@@H](CO)O[C@H]1C(=O)N(c1cc(Br)cc(C#N)c1)[C@@H]1CC[C@H]1O [Example 2.12.5R, (2R,3R,4S,5R,6R)-4-(4-(4-bromo-2,3-difluorophenyl)-1H-1,2,3-triazol-1-yl)-N-(3-bromo-5-cyanophenyl)-5-hydroxy-N-((1R,2R)-2-hydroxycyclobutyl)-6-(hydroxymethyl)-3-methoxytetrahydro-2H-pyran-2-carboxamide]"
